Biological target: T1, Miro1 (Homo sapiens, UniProt Q8IXI2)
T1 construct: We applied compound 3 to fibroblasts from one sporadic PD patient (PD-2); endogenous in cells; host or cells: human skin fibroblasts (PD-2, Healthy-1 and further PD/control lines)
Assay: Miro1 response to CCCP in PD fibroblasts, Western blotting
Format: cell-based
Procedure: FIG. 2A-FIG. 2F. Miro1 Reducer Eliminates the Miro1 Defect in PD Fibroblasts. (FIG. 2A) Chemical properties of Miro1 Reducer. (FIG. 2B) Wild-type flies (w^1118) were fed with DMSO alone (0 μM Miro1 Reducer) or Miro1 Reducer in DMSO at 250 μM for 7 days, and lysed and blotted as indicated. The band intensities are normalized to those of Tubulin from the same blots. n=4. (FIG. 2C-FIG. 2E) Fibroblasts were treated, lysed, and blotted as indicated. (FIG. 2C) Band intensities are normalized to those of GAPDH from the same blots and compared to “Healthy-1, no treatment” except otherwise indicated. n=4. (FIG. 2D) Band intensities are normalized to those of ATP5β from the same blots and expressed as a percentage of the mean of “0 μM Miro1 Reducer with CCCP”. Mean±S.E.M is shown. n=3. (FIG. 2E) Band intensities are normalized to those of GAPDH from the same blots and compared to “Healthy-1, no CCCP, no MG132” except otherwise indicated. n=4. (FIG. 2F) Healthy-1 and PD-2 fibroblasts were transfected as indicated, and immunostained with anti-Myc (Miro1, green) and stained with Dapi (blue). The Miro1 intensity is normalized to that of mito-dsRed from the same cell and quantified across 37-62 cells from 5 fields each transfection, 3 independent transfections. Scale bars: 50 μm. For (FIG. 2C-FIG. 2F), both CCCP and Miro1 Reducer were dissolved in DMSO. Cells were pretreated with Miro1 Reducer 24 hrs before the application of CCCP for another 6 hrs. The same volume of DMSO was applied at the same time in negative controls.
FIG. 3A-FIG. 3D. Miro1 Reducer Rescues Parkinson's Neurodegeneration. (FIG. 3A) Fibroblasts were treated, lysed, and blotted as indicated. Band intensities are normalized to those of ATP5β from the same blots and compared to “Healthy-2, no treatment”. n=4. (FIG. 3B-FIG. 3C) iPSC-derived neurons were treated as indicated and immunostained with anti-TH (FIG. 3B) or stained with PI and Dapi (FIG. 3C). Both Antimycin A and Miro1 Reducer were dissolved in ethanol. Neurons were pretreated with Miro1 Reducer 24 hrs before the application of Antimycin A for another 6 hrs. The same volume of ethanol was applied at the same time in negative controls. (FIG. 3B) The density of TH-positive neurons is calculated in each condition under 20×, from 10 fields each experiment, 3-4 experiments. […] (FIG. 3C) The percentage of PI-positive cells out of total cells (Dapi-positive) is calculated. n=20 fields each experiment, 4 experiments. […] Graphs of Mean±S.E.M show the percent of time each mitochondrion is in motion (red and blue, compared to “Wild-type-I, before treatment”), and the mitochondrial intensity normalized to that of the same axonal region at “0 min” and expressed as a fraction of the mean of “Wild-type-I, 0 min”. n=33-77 mitochondria from 5-8 axons from 5-8 separate transfections. […]

T1 sequence (Q8IXI2 whole entry): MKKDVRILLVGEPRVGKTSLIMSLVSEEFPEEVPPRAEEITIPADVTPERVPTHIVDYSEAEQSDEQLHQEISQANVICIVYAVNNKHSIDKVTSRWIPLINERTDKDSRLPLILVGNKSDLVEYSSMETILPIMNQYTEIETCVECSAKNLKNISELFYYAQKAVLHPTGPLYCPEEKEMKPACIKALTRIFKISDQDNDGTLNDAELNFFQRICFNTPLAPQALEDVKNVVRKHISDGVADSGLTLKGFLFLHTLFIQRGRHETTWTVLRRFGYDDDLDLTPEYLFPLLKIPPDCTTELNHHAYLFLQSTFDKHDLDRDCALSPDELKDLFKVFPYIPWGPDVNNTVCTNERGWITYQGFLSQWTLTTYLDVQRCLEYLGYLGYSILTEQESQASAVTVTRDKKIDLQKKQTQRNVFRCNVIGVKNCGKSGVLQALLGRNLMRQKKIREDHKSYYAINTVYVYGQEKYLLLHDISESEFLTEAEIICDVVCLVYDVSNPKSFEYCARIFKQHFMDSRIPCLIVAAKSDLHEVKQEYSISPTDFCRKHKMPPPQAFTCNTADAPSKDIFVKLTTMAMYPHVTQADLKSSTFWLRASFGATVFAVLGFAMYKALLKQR

`O=C(Nc1ccc(Nc2cc(-n3ccnc3)ncn2)cc1)Nc1cccc(F)c1` [Miro1 Reducer] was tested, and the “Miro1 degradation following CCCP treatment” value (PD-2 fibroblasts, 10 μM for 30 hrs, CCCP 6 hrs) was “robustly promoted Miro1 degradation”, the “reduction of Miro1 protein in presence of proteasome inhibitor MG132” value (PD-2 fibroblasts, following CCCP treatment) was “blocked by the proteasome inhibitor MG132” and the “Miro1 degradation after depolarization in additional lines” value (additional 4 control and 4 sporadic PD fibroblast cell lines) was “same beneficial change of Miro1 degradation after depolarization”. The IC50 (fibroblasts pretreated 24 hrs, then CCCP 6 hrs, FIG. 2D, read-out: Miro1 protein levels, dose-dependent response (IC50)) was 7.8 µM.
